These results are taken from patent publication US9988680B2, “Non-natural nucleosides as theranostic agents” (Case Western Reserve University, priority 2011, dated 2018).

Data set [1] addresses T1, terminal deoxynucleotidyl transferase (TdT) (Bos taurus, UniProt P06526). The data set can be described thus: Incorporation of natural and non-natural nucleotides by TdT (polymerization assay, Michaelis-Menten kinetics). In kind it is biochemical. The protocol: All enzymatic assays were performed as previously described. […] Reactions were quenched with 200 Mm EDTA at variable times (5-600 s) and analyzed using denaturing gel electrophoresis. Time courses in product formation were fitted using eq 1: Y=mt+b(1) (1)
where y is the amount of product, m is the rate of the reaction, t is time, and b is the Y-intercept. Km and Vmax values were determined by fits of the data points to the Michaelis-Menten equation: […]
where Vmax is the maximal rate of nucleotide incorporation, Km is the Michaelis constant for dNTP, and [dNTP] is the concentration of nucleotide substrate. The IC50 value for 3-Eth-5-NITP was obtained using a nonlinear regression curve fit of the data to eq 3:
The biological function of TdT is to expand immunological diversity by randomly incorporating dNTPs into single-stranded DNA during V(D)J recombination. […] TdT also utilizes nucleotide analogues including 2′,3′-dideoxynucleotides, dinucleoside 5′,5′-tetraphosphates, and intrinsically fluorescent nucleotide analogues. In this report, we tested if TdT also incorporates indolyl-2′-deoxyribose-5′-triphosphates that bear non-natural moieties such as ethynyl and nitro groups at the 3- and 5-position, respectively, of the indole base. […] Aliquots of the reaction were quenched with EDTA at variable time points, and the polymerization reactions were then subjected to denaturing polyacrylamide gel electrophoresis to separate extended primers from unreacted substrate.
Time courses in product formation were generated using pseudo-first order reaction conditions in which 6 units of TdT were incubated with 1.5 μM DNA substrate and mixed with variable concentrations of non-natural nucleotide (0.05-50 μM). Each time course was fit to an equation for a straight line to define the rate of nucleotide incorporation (data not shown).

In data set [2] the target is T1, terminal deoxynucleotidyl transferase (TdT). The data set is described as above. The note with it: reaction times of up to 20 min. The format is biochemical.
Data set [3] relates to MOLT4 cells. The data set can be described thus: Cell proliferation assay (trypan blue, viable vs non-viable cells), MOLT4. The format is cell-based. The note with it: for IC50 / LD50: MOLT4, up to 72 h. The protocol: (§1) Cells were seeded at a population density of ˜200,000 cells mL-1 and treated with variable concentrations of non-natural nucleoside (0.1-100 μg mL-1) for up to 72 h. The final DMSO concentration in all experiments was 0.1%. Cell viability was assessed via trypan blue staining and counting the number of viable (clear) versus non-viable (blue) cells under a microscopy using a hemocytometer. The IC50 values for both nonnatural nucleosides were obtained using a nonlinear regression curve fit of the data to eq 3. LD50 values for the non-natural nucleosides were calculated using identical approaches.
This hypothesis was tested by measuring the cytostatic and/or cytotoxic effects of the corresponding nucleoside, 3-Eth-5-NIdR, and 5-nitroindolyl-2′-deoxynucleoside (5-NIdR) against various ALL cell lines including MOLT4, CEM-C7, Jurkat, RS4(11), JS45.01, and Loucy. Western blot analyses was first performed to determine TdT levels in each ALL cell line. […] We next tested the efficacy of 5-NIdR and 3-Eth-5-NIdR by treating exponentially growing cells with variable concentrations (0.1-100 μg mL^−1) of each non-natural nucleoside for time periods of up to 3 days.

Data set [4] concerns Loucy cells. Nature of the data set: Cell proliferation assay (trypan blue), Loucy. In kind it is cell-based. The protocol: as §1
The test system of data set [5] is CEM-C7 cells. Nature of the data set: Cell proliferation assay (trypan blue), CEM-C7. The note with it: CEM-C7, up to 72 h. The format is cell-based. The protocol:
as §1
(§2) Identical cell-based experiments were performed with the other ALL cell lines, and the corresponding IC50 and LD50 values for 5-NIdR and 3-Eth-5-NIdR against each cell line are summarized in Table 2. […] The increased potency of 3-Eth-5-NIdR likely reflects the higher catalytic efficiency for the corresponding nucleoside triphosphate to act as a chain-terminating substrate for TdT. […] In general, there is an excellent correlation (R^2=0.695, p<0.0001) between the anti-cancer effects of the non-natural nucleoside with TdT level. Similar analyses were performed by plotting the LD50 values of 3-Eth-5-NIdR as a function of TdT content (FIG. 3E).

In data set [6] the test system is Jurkat cells. The data set can be described thus: Cell proliferation assay (trypan blue), Jurkat. The note with it: up to 72 h. In kind it is cell-based. The protocol:
as §1, §2

The test system of data set [7] is RS4(11) cells. The data set can be described thus: Cell proliferation assay (trypan blue), RS4(11). The format is cell-based. The note with it: up to 72 h. The protocol:
as §1, §2

In data set [8] the test system is J45.01 cells. Nature of the data set: Cell proliferation assay (trypan blue), J45.01. In kind it is cell-based. As to conditions: J45.01, up to 72 h. How it is done:
as §1, §2

In data set [9] the test system is MOLT4 cells. Nature of the data set: Apoptosis measurement (Annexin V-Alexa Fluor 488 / propidium iodide flow cytometry). In kind it is cell-based. How it is done: Cells were treated with DMSO (vehicle), 5-NIdR (100 μg mL-1), and 3-Eth-5-NIdR (10 and 40 μg mL-1) as described above. Cells were harvested by centrifugation and washed in phosphate-buffered saline and resuspended in 100 μL of binding buffer containing AnnexinV-Alexa Fluor 488 conjugate. Cells were treated with propidium iodide (PI) and incubated at RT for 15 min followed by flow cytometry analysis. This enables live cells (unstained with either Alexa Fluor 488 or PI) to be discriminated from early apoptotic (stained with Alexa Fluor 488), late apoptotic cells (stained with Alexa Fluor 488 and PI), and necrotic cells (stained with PI).
The mechanism by which these non-natural nucleosides induce cell death was interrogated using dual parameter FACS analyses measuring propidium iodide uptake and Alexa Fluor488 annexin V conjugate staining. This allows live cells (unstained with either fluorophore) to be distinguished from cells that are early apoptotic (annexin V staining only), late apoptotic (propidium iodide and annexin V staining), and necrotic (propidium iodide staining only). […] In this case, treatment with 100 μg mL^−1 5-NIdR causes a 5-fold increase in early and late stage apoptosis, respectively. […] The induction of apoptosis was also independently confirmed by using agarose gel electrophoresis to observe DNA cleavage sites between nucleosomes that occur in chromatin at ˜200-base pair intervals.
Background: Flow cytometry measures light scatter and fluorescence of single cells or particles in a stream.

In data set [10] the test system is MOLT4 cells. Nature of the data set: In situ click reaction with AlexaFluor488-azide, flow cytometry, MOLT4. In kind it is cell-based. How it is done:
(§3) In situ “click” reactions were performed using cells harvested after 2 days of treatment with DMSO, 3-Eth-5-NIdR (10, 40, or 100 μg mL^−1), 5-NIdR (100 μg mL^−1) or 5-ethynyl-2′-deoxyuridine (EdU) (10 μM). All cells were fixed with cold methanol. Under minimal lighting, cells were treated with 0.3 mL of saponin-based permeabilization and wash buffer for 45 min at 37° C. Click reactions were initiated by adding the click-iT reaction cocktail according to the instructions of the manufacturer (Invitrogen) followed by incubation at 37° C. for 90 min. Cells were then washed two times with saponin-based permeabilization and wash buffer. Cell pellets were dislodged using 0.5 mL solution of 10 μg mL^−1 PI and RNAase A in saponin-based permeabilization and wash buffer and then incubated for at least 15 min prior to flow cytometry analysis.
MOLT4 cells were treated with DMSO, EdU (a “clickable” thymidine analogue), 5-NIdR, and 3-Eth-5-NIdR for 2 days and then washed with PBS to remove any nucleoside and/or nucleotide not incorporated into DNA. After fixation and permeabilization, the cells were treated with AlexaFluor488-azide and Cu(I) catalyst to commence “clicking” of any incorporated nonnatural nucleotide. Dual parameter flow cytometry applying PI staining coupled with detection of the AlexaFluor488 fluorophore was used to detect the “clicked” non-natural nucleotide in cellular DNA. […] This high amount of “clicked” DNA reflects transport of EdU into the cell, conversion to the corresponding nucleoside triphosphate, and incorporation into the DNA of replicating cells. MOLT4 cells treated with 10 μg mL^−1 3-Eth-5-NIdR also show appreciable levels of AlexaFluor488 stained DNA (2.8%) after 2 days of treatment. Furthermore, the amount of “clicked” DNA is dosedependent as treatment with 40 μg mL^−1 Eth-5-NIdR yields a […] increase in AlexaFluor488 staining (6.5%). Identical experiments were performed using the Loucy cell line that lacks TdT and thus is less sensitive to the cytotoxic effects of the non-natural nucleoside (vide inf ra). […] Treatment with 40 μg mL^−1 of 3-Eth-5-NIdR produces low levels of “clicked” DNA (0.02%). […] Once incorporated into DNA, the non-natural nucleotide inhibits cellular DNA replication and induces apoptosis. Finally, it should be emphasized that low levels (<0.5%) of AlexaFluor488 staining are detected in cells treated with 100 μg mL^−1 5-NIdR.

Data set [11] concerns Loucy cells. Nature of the data set: In situ click reaction with AlexaFluor488-azide, flow cytometry, Loucy. The format is cell-based. The note with it: 40 μg mL^−1, 2 days. The protocol:
as §3
MOLT4 cells were treated with DMSO, EdU (a “clickable” thymidine analogue), 5-NIdR, and 3-Eth-5-NIdR for 2 days and then washed with PBS to remove any nucleoside and/or nucleotide not incorporated into DNA. After fixation and permeabilization, the cells were treated with AlexaFluor488-azide and Cu(I) catalyst to commence “clicking” of any incorporated nonnatural nucleotide. […] Finally, it should be emphasized that low levels (<0.5%) of AlexaFluor488 staining are detected in cells treated with 100 μg mL^−1 5-NIdR.

Where [12] appears, read: Loucy (TdT-negative), up to 72 h.
Setting [13] is: MOLT4, 40 μg mL^−1, compared to DMSO.

Structures are written as SMILES. Values after ≈ are worked out from the molar mass of the structure shown.

T1 sequence (P06526 whole entry): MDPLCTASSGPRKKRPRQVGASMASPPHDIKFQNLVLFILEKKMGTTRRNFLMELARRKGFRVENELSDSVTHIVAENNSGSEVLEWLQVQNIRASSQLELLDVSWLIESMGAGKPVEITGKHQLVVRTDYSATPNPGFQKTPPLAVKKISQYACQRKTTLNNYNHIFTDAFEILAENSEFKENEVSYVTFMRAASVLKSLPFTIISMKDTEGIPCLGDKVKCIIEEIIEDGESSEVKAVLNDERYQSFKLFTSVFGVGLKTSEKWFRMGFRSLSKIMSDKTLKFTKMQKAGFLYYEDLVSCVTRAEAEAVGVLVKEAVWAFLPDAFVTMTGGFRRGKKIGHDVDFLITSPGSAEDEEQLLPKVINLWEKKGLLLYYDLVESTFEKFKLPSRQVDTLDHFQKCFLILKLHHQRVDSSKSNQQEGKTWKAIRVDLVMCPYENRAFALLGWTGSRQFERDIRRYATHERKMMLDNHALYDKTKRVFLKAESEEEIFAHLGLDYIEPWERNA

The term Vmax denotes the rate approached at saturating substrate. With `C#Cc1cn(C2CC(O)C(COP(=O)(O)OP(=O)(O)OP(=O)(O)O)O2)c2ccc([N+](=O)[O-])cc12` (centres unmarked) [3-Eth-5-NITP, 3-ethynyl-5-nitroindolyl-2′-deoxyribose-5′-triphosphate], the “utilization by TdT (elongation of 14-mer DNA substrate)” value in data set [1] (100 μM nucleotide, 6 units TdT, 1.5 μM 14-mer (FIG. 2B)) is recorded as “utilized by TdT as efficiently as the natural purines”. The “extension by TdT beyond the incorporated nucleotide” value in data set [1] (100 μM nucleotide, 14-mer DNA, gel (FIG. 2B)) was “poorly extended”. The maximum rate (Vmax) in data set [1] (incorporation by TdT, 6 units TdT, 1.5 μM single-stranded DNA substrate) came out at 3.2 ± 0.1 nM/s. In addition, in data set [1] (relative to 5-NITP), the “catalytic efficiency higher than that for 5-NITP” value was 7 fold and the “decrease in Vmax” value turned out to be 3.5 fold. The “extension by TdT beyond the incorporated nucleotide at longer reaction times” value in data set [2] is “not observed”.

Broadly, the IC50 is the point on the concentration scale where inhibition reaches its midpoint. A lower IC50 goes with greater potency in that assay. Consider `C#Cc1cn([C@H]2C[C@H](O)[C@@H](CO)O2)c2ccc([N+](=O)[O-])cc12` [3-Eth-5-NIdR, 3-ethynyl-5-nitroindolyl-2′-deoxynucleoside], for which the “cytostatic and cytotoxic effects” value in data set [3] (MOLT4, 10 μg mL^−1) was “cytostatic and cytotoxic effects are observed”. The half-inhibitory concentration (IC50) in [3] amounted to 14.1 ± 2.4 µg/mL (≈ 46.6 µM); in data set [3] (listed as 3-Eth-5-NIdr), 14 ± 2 µg/mL (≈ 46.3 µM); in [4] (setting [12]) it was 62 ± 5 µg/mL (≈ 205 µM); in [5], 23 ± 2 µg/mL (≈ 76.1 µM); in data set [6] it was 49 ± 1 µg/mL (≈ 162 µM); in data set [7] it was 23 ± 2 µg/mL (≈ 76.1 µM). The IC50 in data set [8] amounted to 34 ± 6 µg/mL (≈ 112 µM). Moreover, the LD50 in data set [3] was 27.7 ± 1.7 µg/mL; in [3] (listed as 3-Eth-5-NIdr), 28 ± 4 µg/mL; in data set [4] (setting [12]) it was 63 ± 3 µg/mL; in data set [5] it was around 100 µg/mL; in data set [6], around 100 µg/mL; in [7] it was 57 ± 2 µg/mL. In data set [8], this molecule had an LD50 of 71 ± 6 µg/mL. The “cytostatic or cytotoxic effects” value in [4] (Loucy, 40 μg mL^−1) was “significant cytostatic or cytotoxic effects are not observed”. Further, in data set [9] (MOLT4), the “PI uptake (necrotic cell death)” value is recorded as “no significant PI uptake”. The “Early apoptoic cells (%)” value in data set [9] (MOLT4, 10 μg mL^−1) turned out to be 10.5 ± 1.5%; in data set [9] (MOLT4, 40 μg mL^−1) it was 68.8 ± 0.9%. The “Late apoptoic cells (%)” value was 5.4 ± 1.0% in data set [9] (MOLT4, 10 μg mL^−1) and 23.7 ± 4.9% in data set [9] (MOLT4, 40 μg mL^−1). Also, the “Necrotic cells (%)” value was determined as 0.7 ± 0.2% in data set [9] (MOLT4, 10 μg mL^−1) and 1.2 ± 0.2% in data set [9] (MOLT4, 40 μg mL^−1). Moreover, the “Viable cells (%)” value is recorded as 83.4 ± 2.7% in data set [9] (MOLT4, 10 μg mL^−1) and 6.3 ± 3.7% in [9] (MOLT4, 40 μg mL^−1). Also, the “level of apoptosis compared with 100 μg mL^−1 5-NIdR” value in data set [9] (MOLT4, 10 μg mL^−1) is “equivalent levels of apoptosis”. Also, the “increase in early stage apoptosis” value in data set [9] (setting [13]) was 13 fold. In addition, in data set [9] (setting [13]), the “increase in late stage apoptosis” value is recorded as 7 fold. The “AlexaFluor488 stained (clicked) DNA” value in data set [10] (MOLT4, 10 μg mL^−1, 2 days) turned out to be 2.8%. Besides, the “AlexaFluor488 staining (clicked DNA)” value in data set [10] (MOLT4, 40 μg mL^−1, 2 days) turned out to be 6.5%. Also, in data set [10] (MOLT4, 40 vs 10 μg mL^−1), the “increase in AlexaFluor488 staining” value turned out to be 2.5 fold. Also, the “clicked DNA (AlexaFluor488 staining)” value in data set [11] is 0.02%.
